Counter-ions that a name gives are not always drawn.
Key:
[1] = system: human alpha 1b and alpha 1d adrenergic receptors; test: Selective Binding assays ([125I]-HEAT competition, membranes of stably transfected human alpha 1d and alpha 1b cell lines), compared with alpha 1a; conditions: alpha 1a versus alpha 1b and alpha 1d
Method: Selective Binding assays Membranes prepared from stably transfected human alpha 1d and alpha 1b cell lines (ATCC CRL 11138 and CRL 11139, respectively) were used to identify compounds that selectively bind to the human alpha 1a adrenergic receptor. These competition binding reactions (total volume=200 μl) contained 50 mM Tris-HCl pH. 7.4, 5 mM EDTA, 150 mM NaCl, 100 pM [^125 I]-HEAT, membranes prepared from cell lines transfected with the respective alpha 1 subtype expression plasmid and increasing amounts of unlabeled ligand. Reactions were incubated at room temperature for one hour with shaking. Reactions were filtered onto Whatman GF/C glass fiber filters with a Inotec 96 well cell harvester. Filters were washed three times with ice cold buffer and bound radioactivity was determined (Ki).

[2] = target: T1, human alpha 1a adrenergic receptor (Homo sapiens, UniProt P35348); test: Alpha 1a Adrenergic Receptor Binding screening assay ([125I]-HEAT competition, membranes of stably transfected human alpha 1a cell line); conditions: human alpha 1a receptor, 100 pM [125I]-HEAT, room temperature, one hour
T1 sequence (P35348 1-466): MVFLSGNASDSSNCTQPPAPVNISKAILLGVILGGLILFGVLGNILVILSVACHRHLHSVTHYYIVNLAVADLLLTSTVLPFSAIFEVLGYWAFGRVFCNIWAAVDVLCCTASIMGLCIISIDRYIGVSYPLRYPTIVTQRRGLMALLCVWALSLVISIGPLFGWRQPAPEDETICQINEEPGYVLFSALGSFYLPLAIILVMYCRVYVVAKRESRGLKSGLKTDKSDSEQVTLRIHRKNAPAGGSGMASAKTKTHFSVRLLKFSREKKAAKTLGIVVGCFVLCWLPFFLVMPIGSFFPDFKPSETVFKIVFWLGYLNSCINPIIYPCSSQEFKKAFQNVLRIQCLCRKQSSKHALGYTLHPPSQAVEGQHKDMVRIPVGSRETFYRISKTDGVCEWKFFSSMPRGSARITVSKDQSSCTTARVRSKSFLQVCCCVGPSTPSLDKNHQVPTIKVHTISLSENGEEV
Method: Screening assay: Alpha 1a Adrenergic Receptor Binding
Membranes prepared from the stably transfected human alpha 1a cell line (ATCC CRL 11140) were used to identify compounds that bind to the human alpha 1a adrenergic receptor. These competition binding reactions (total volume=200 μl) contained 50 mM Tris-HCl pH. 7.4, 5 mM EDTA, 150 mM NaCl, 100 pM [^125 I]-HEAT, membranes prepared from the alpha 1a cell line and increasing amounts of unlabeled ligand. Reactions were incubated at room temperature for one hour with shaking. Reactions were filtered onto Whatman GF/C glass fiber filters with a Inotec 96 well cell harvester. Filters were washed three times with ice cold buffer and bound radioactivity was determined (Ki).

Row | SMILES | selectivity in binding to alpha 1a receptors versus binding to the alpha 1b and alpha 1d receptors [1] | Ki [2] [nM] | alpha 1a Ki [2]
1 | Cl.O=C(N[C@@H]1CCN([C@H]2CC[C@@H](c3ccccn3)CC2)C1)N1C(=O)OC[C@@H]1c1ccc(F)c(F)c1 [Example 12, (4S)-cis-4-(3,4-Difluorophenyl)-2-oxooxazolidine-3-carboxylic acid-[1-(4-pyridin-2-yl-cyclohexyl)-(3R)-pyrrolidin-3-yl]amide hydrochloride] | at least 3 fold | < 200 | 
2 | NC(=O)[C@@H]1OC(=O)N(C(=O)N[C@@H]2CCN([C@H]3CC[C@H](c4ccccc4F)CC3)C2)[C@H]1c1ccc(F)c(F)c1 [Example 78, (4S,5R)-trans-4-(3,4-Difluorophenyl)-3-{1-[4-(2-fluorophenyl)cyclohexyl]-(3R)-pyrrolidin-3-ylcarbamoyl}-2-oxo-oxazolidine-5-carboxamide] | about 37 fold |  | 
3 | O=C(N[C@@H]1CCN(C2CCC(O)(c3ccccn3)CC2)C1)N1C(=O)OC[C@@H]1c1ccc(F)c(F)c1 (stereo partly drawn) [Example 20, (4S)-trans-4-(3,4-Difluorophenyl)-2-oxooxazolidine-3-carboxylic acid-[1-(4-hydroxy-4-pyridin-2-yl-cyclohexyl)-(3R)-pyrrolidin-3-yl]amide hydrochloride] |  |  | inactive
4 | COc1ccccc1[C@H]1CC[C@@H](N2CC[C@@H](NC(=O)N3C(=O)OC[C@@H]3c3ccc(F)c(F)c3)C2)CC1 [Example 16, (4S)-cis-4-(3,4-Difluorophenyl)-2-oxooxazolidine-3-carboxylic acid-{1-[4-(2-methoxyphenyl)-cyclohexyl]-(3R)-pyrrolidin-3-yl}amide hydrochloride] |  | ~800 | 

Source: US6037354A, “Alpha 1a adrenergic receptor antagonists” (Merck & Co., Inc., priority 1998, dated 2000)
